Measurements reported in patent publication US4730006A, “Derivatives of 2,6-diamino-3-haloheptanedioic acid” (Merrell Dow Pharmaceuticals Inc., priority 1986, dated 1988).
Converted amounts (≈) assume the structure as drawn. Where a name gives a salt, the structure may show the parent alone. Read-outs that look alike come from different tables or passages of the source.

Columns and labels:
E. coli (PR7) = test: MIC, serial dilutions in plates, E. coli; format: cell-based; conditions: Escherichia coli
Procedure: (§1) The antibacterial spectrum and minimal inhibitory concentration (MIC) of typical compounds of the present invention are determined by one or more standard techniques. Thus, for example, serial dilutions of the compound being tested are made in tubes of rich medium containing no peptide […] (Atherton et al., 1979) or in plates containing the same medium plus agar. Series of tubes or plates of agar containing different concentrations of the test compound are inoculated with the cultures utilized to determine activity. After incubation for 24 hours at 37° C., the inoculated tubes or agar plates are examined for the inhibition of bacterial growth and an MIC is determined therefrom.
(§2) The following example illustrates the in vitro activity of the compounds of this invention against a variety of pathogenic organisms.
(§3) *Serial dilutions in plates as described by Atherton et al. (1979).

A. aerogenes (62.1) = test: MIC, serial dilutions in plates, A. aerogenes; format: cell-based; conditions: Klebsiella aerogenes
Procedure: as §1, §2, §3

[1] = test system: P. aerogerosa (ATCC 25619); test: MIC, serial dilutions in plates, P. aerogerosa; format: cell-based
Procedure: as §1, §2, §3

[2] = test system: S. marcescens (ATCC 8100); test: MIC, serial dilutions in plates, S. marcescens; format: cell-based; conditions: Serratia marcescens, ATCC8100
Procedure: as §1, §2, §3

[3] = In vivo studies: serum levels in mice by bioassay; set-up: species or system CFW mice; conditions: for Serum half-life: mice
Procedure: Groups of 3 fasted CFW mice (20 g±2) were dosed subcutaneously with 20, 50 or 100 mg/kg or orally with 50 or 100 mg/kg of δ-fluoro-ε-carboxylysyl-L-alanyl-L-alanine. At intervals of from 10 min to 210 min, after dosing animals were anesthetised with ether, and heparinized blood samples obtained by eye-puncture. Samples were kept on ice and the plasma removed. After dilution (1:1) with saline, aliquots were assayed for δ-fluoro-ε-carboxylysyl-L-alanyl-alanine by bioassay.
The antibacterial activity of δ-fluoro-ε-carboxylysyl-L-alanyl-alanine was determined by plate assay on "Roche" agar medium (adjusted to pH 6,5-see Atherton et al. (1979) using Aerobacter aerogenes as the test strain. Standard solutions of δ-fluoro-ε-carboxylysyl-L-alanyl-alanine were prepared by suitable dilutions in water (from the same solution used for injection) and 0,4 μg to 7,0 μg were applied to sterile discs (9 mm dia.) concomittently with serum samples. After overnight incubation at 37° C., zones of inhibition were measured across two diameters. A standard plot of zone diameter vs log. concentration of standards was prepared. The average serum concentration of δ-fluoro-ε-carboxylysyl-L-alanyl-alanine from 3 mice was taken from this standard plot. Control serum had no activity and 50% serum had no effect on the standard plot.

[4] = biological target: T1, Escherichia coli DAP-epimerase (E.C. 5.1.1.7) (Escherichia coli, UniProt P0A6K1); test: Inhibition of Escherichia coli DAP-epimerase (E.C. 5.1.1.7); format: biochemical, Escherichia coli (PR7)
T1 construct: endogenous in cells; host or cells: E. coli PR7; Endogenous enzyme purified by ammonium sulfate 30-45%, DE52 and Matrix green A dye-ligand column
T1 sequence (P0A6K1 whole entry): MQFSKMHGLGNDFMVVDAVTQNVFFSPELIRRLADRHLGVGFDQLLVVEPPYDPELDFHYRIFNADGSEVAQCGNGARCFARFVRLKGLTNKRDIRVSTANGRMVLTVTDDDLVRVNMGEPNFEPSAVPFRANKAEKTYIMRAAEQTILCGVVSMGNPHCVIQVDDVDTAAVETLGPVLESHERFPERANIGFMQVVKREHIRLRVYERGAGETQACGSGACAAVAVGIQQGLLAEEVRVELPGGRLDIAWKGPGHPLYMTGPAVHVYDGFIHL
Procedure: Strains were inoculated into Nutrient bath (5 ml) and grown up overnight (16 hours) at 37° C. Small amounts of cells were obtained in shake flask cultures (50 ml-1000 ml) obtained by innoculating Igarashi medium (Igarashi et al., 1979), with 2% of the starter culture. Cells were harvested at late-log (OD 540 nm 0,7-0,8) and rinsed before storage at -20° C. Larger amounts of cells were obtained using an overnight culture (Igarashi medium) of 2,5 l as innoculum for 80 l of Igarashi medium in a Biolaffite Fermenter. Cells were harvested in late-log (OD 540 nm 2.0) using a filtration system for cell concentration (40 fold) followed by centrifugation.
Cells from E. Coli (PR7), usually in batches of 40 g, were suspended in 100 ml buffer A (20 mM potassium phosphate 1 mM EDTA, 1 mM DTT, pH 7.0) by using the Ultraturrax apparatus (10 min). Passage through the French press (20,000 lbs/sq ins) and centrifugation 30,000 xg for 20 min gave the S30 crude extract. The supernatent was fractionated by adding solid ammonium sulfate to 30%, centrifugation was followed by further ammonium sulfate to 45%. The precipitated protein was dissolved in buffer to give a final volume of 10 ml which was dialysed overnight against 2,000 ml of buffer A.
The dialysed crude enzyme preparation was applied to a DEAE-cellulose column (2.3×49 cms) DES52, equilibrated with buffer A. The column was washed with 250 ml of buffer A and eluted with a linear gradiant formed by adding 250 ml of buffer A containing 0,22M KCl to 250 ml of buffer A. The flow rate was 25 ml/hr and 10 ml fractions were collected. DAP-epimerase eluted near the end of the gradiant at approximately 0,20M KCl. Pooled fractions containing DAPepimerase activity were dialysed overnight against 2,000 ml buffer A. Enzyme was concentrated by applying the dialysate to a smal DES52 column (0.9×10 cms), rinsing with 50 ml of buffer A and eluting with buffer A containing 0,50M KCl. The flow-rate was 20 ml/hr and 2,5 ml fractions were collected. Enzyme activity eluted immediately and pooled fractions were dialized against 1,000 ml buffer A.
A final purification step was obtained by applying the concentrated dialysed enzyme to a dye ligand column (1,4×5 cms), Matrix green A, rinsing with 50 ml buffer A and then eluting with 50 ml of buffer A containing 1,2M […] collecting 5 ml fractions. Pooled fractions were dialysed and concentrated on a small DE52 as described above.
(§4) DAP-epimerase activity was routinely measured at 25° C. Reaction mixtures contained 0.1M Tris HCl (pH 7,8), 1 mH EDTA, 1 mM DTT and […] of [G-^3 H]DAP in a total volume of 0.10 ml. After incubation for 40 min, reaction mixtures were quenched with 0.5 ml of 10% TCA and applied to 1 ml of AG50×4 ion-exchange resin (H' form) contained in a column (about 0.4×2 cms) fashioned from a blue pipette cone. The column was washed with 3×0.5 ml of water and the combined eluants counted for radioactivity.
(§5) In vitro DAP-epimerase, purified as described above, was incubated at 25° C. with various concentrations of δ-fluoro-ε-carboxylysine (usually 0, 10, 20, 40, 80 and […]) as described in the enzyme assay above.
*Values determined by Dixon plots (Ref. Dixon, M., 1972).

[5] = biological target: T2, DAP-epimerase (EC 5.1.1.7) (Serratia marcescens, UniProt A0A0G3SSC4); test: Inhibition of DAP-epimerase partially purified from Serratia marcescens; format: biochemical, Serratia marcescens (ATCC 8100); conditions: enzyme partially purified from S. marcescens (ATCC 8100) through to the first DE52 column
T2 sequence (A0A0G3SSC4 1-274): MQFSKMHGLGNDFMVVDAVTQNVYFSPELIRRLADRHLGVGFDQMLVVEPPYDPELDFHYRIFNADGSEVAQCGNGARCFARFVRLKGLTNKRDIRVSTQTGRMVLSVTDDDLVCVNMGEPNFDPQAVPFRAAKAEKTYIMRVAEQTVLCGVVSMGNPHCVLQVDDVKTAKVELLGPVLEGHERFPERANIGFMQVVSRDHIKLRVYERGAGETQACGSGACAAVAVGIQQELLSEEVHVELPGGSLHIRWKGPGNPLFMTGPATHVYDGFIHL
Procedure: as §4, §5
(§6) **DAPepimerase was partially purified from each organism as described
(§7) (Example VII) through to the first DE52 column except that with Aerobacte

[6] = biological target: T3, DAP-epimerase (EC 5.1.1.7) (Pseudomonas aeruginosa, UniProt Q51564); test: Inhibition of DAP-epimerase partially purified from Pseudomonas aerogenosa; format: biochemical, Pseudomonas aerogenosa (ATCC 25619); conditions: enzyme partially purified from P. aerogerosa (ATCC 25619) through to the first DE52 column
T3 construct: **DAPepimerase was partially purified from each organism as described; endogenous in cells; host or cells: Pseudomonas aeruginosa ATCC 25619; Purified through the first DE52 column
T3 sequence (Q51564 1-276): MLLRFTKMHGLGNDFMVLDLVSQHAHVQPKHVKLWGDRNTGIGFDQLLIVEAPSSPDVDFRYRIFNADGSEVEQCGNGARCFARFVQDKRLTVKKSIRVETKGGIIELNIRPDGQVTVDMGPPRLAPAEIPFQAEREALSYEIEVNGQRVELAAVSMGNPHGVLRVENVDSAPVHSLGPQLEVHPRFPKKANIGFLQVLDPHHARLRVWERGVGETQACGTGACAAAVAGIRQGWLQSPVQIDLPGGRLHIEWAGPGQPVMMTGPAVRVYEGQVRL
Procedure: as §4, §5, §6, §7

Row | MIC (E. coli (PR7)) [µg/mL] | MIC (A. aerogenes (62.1)) [µg/mL] | MIC [1] [µg/mL] | MIC [2] [µg/mL] | Structure (SMILES) | Ki [4] [µM] | further results
1 | 12.5 (≈ 35.7 µM) | 12.5 (≈ 35.7 µM) | 100 (≈ 285 µM) | 0.2 (≈ 0.571 µM) | C[C@H](NC(=O)[C@H](C)NC(=O)[C@@H](N)CCC(F)C(N)C(=O)O)C(=O)O (stereo partly drawn) [δ-FLUORO-ε-CARBOXYLYSYL-L-ALANYL-L-ALANINE] |  | Serum half-life ([3]; P.O. (printed on the 50 mg/kg line)): 1.07 h; Serum half-life ([3]; S.C. (printed on the 50 mg/kg line)): 1.2 h; Serum levels compared with minimum inhibition concentrations of infectious microorganisms ([3]; mouse, in vivo): consistently above the minimum inhibition concentrations
2 |  |  |  |  | NC(CCC(F)(F)C(N)C(=O)O)C(=O)O (stereo not drawn) [δ,δ-difluoro-ε-carboxylysine, 1,5-diamino-2,2-difluoro-1,5-pentanedicarboxylic acid, dihydrochloride] |  | IC50 ([4]; purified E. coli DAP-epimerase, 25° C., read-out: IC50): 50 µM
3 |  |  |  |  | NC(CCC(Cl)C(N)C(=O)O)C(=O)O (stereo not drawn) [δ-chloro-ε-carboxylysine, 1,5-diamino-2-chloro-1,5-pentanedicarboxylic acid, dihydrochloride] | 0.5 | 
4 | 12.5 (≈ 44.8 µM) | 6 (≈ 21.5 µM) | 0.8 (≈ 2.86 µM) | 0.2 (≈ 0.716 µM) | C[C@H](NC(=O)[C@@H](N)CCC(F)C(N)C(=O)O)C(=O)O (stereo partly drawn) [δ-fluoro-ε-carboxylysylalanine, δ-Fluoro-ε-carboxylysyl-L-alanine] |  | 
5 |  |  |  |  | NC(CCC(F)C(N)C(=O)O)C(=O)O (stereo not drawn) [δ-fluoro-ε-carboxylysine, 3-fluoro-2,6-diaminopimelic acid] | 7.7 | Ki [5]: 1 µM; IC50 [4]: 1.35 µM; Inhibition after aliquots were removed and diluted 50-fold with the assay medium ([4]; in vitro, enzyme incubated with inhibitor at 25° C., then diluted 50-fold): no inhibition was observed; Ki [6]: 5.4 µM
